Assay results published in patent publication US10433544B2, “Herbicide” (University of Kentucky Research Foundation, priority 2017, dated 2019).

What was measured:
[1] = test system: seed germination of numerous plant species; experiment: Ribitol toxicity effect on seed germination, numerous plant species; format: in vivo; conditions: ribitol with no adjuvant
From the text: An increasing number of species have been identified as bearing the SDH gene and activity (Jia et al., […]), so most weed species could likely metabolize it.

[2] = test system: seed of alfalfa, dandelion and mixed grasses; experiment: Seed germination in 300 mM solutions of fructose and polyols (FIG. 1); format: in vivo; conditions: ribitol/xylitol 150 mM + 150 mM, 8 days of incubation
Protocol: FIG. 1 includes a chart showing the effect of 300 mM solutions of fructose and polyols, and a 150 mM ribitol plus 150 mM xylitol (R+X) formulation on seed germination. Means±standard deviation are across alfalfa, dandelion and mixed grasses after 8 days of incubation.
Seed of several species were incubated with 300 mM solutions of fructose, inositol, sorbitol, ribitol, xylitol as well as a ribitol/xylitol solution.

seed of turfgrass = experiment: Turfgrass seed germination in xylitol, ribitol and ribitol/xylitol solutions (FIG. 2A); format: in vivo; conditions: total concentrations 100 to 300 mM, 10 days
Protocol: (§1) FIG. 2 includes images of grass (A) and Dutch white clover (B) seed germination after 10 days in solutions of xylitol alone, ribitol alone, and xylitol+ribitol, at total concentrations of 100 to 300 mM (grass) or 100 to 400 mM (clover).
(§2) Seed of turfgrass (FIG. 2A) and Dutch white clover (FIG. 2B) were incubated with solutions of xylitol, ribitol, and a ribitol/xylitol solution at 100 to 300 mM (A) or 100 to 400 mM (B). […] The clover seed was in developmental arrest at 400 mM ribitol and 300 mM ribitol/xylitol.

[3] = test system: seed of Dutch white clover; experiment: Dutch white clover seed germination in xylitol, ribitol and ribitol/xylitol solutions (FIG. 2B); format: in vivo; conditions: total concentrations 100 to 400 mM, 10 days
Protocol: as §1, §2

[4] = test system: growing plants of several weed species, including clover and pigweed; experiment: Container studies, application to growing plants of several weed species (FIG. 3); format: in vivo, white clover and pigweed; conditions: for effect of application on growing plants: 300 mM total concentration, twice a week for 2 weeks; for rank order of the effect / severity of effect across species: 300 mM; for rank order of the effect: injury and death of growing plants; for severity of effect across species: container studies
Protocol: FIG. 3 includes images showing the effect of application of selected sugars and polyols twice a week for 2 weeks to white clover (A) and pigweed (B) plants.
(§3) In container studies, fructose, inositol, sorbitol, ribitol, xylitol as well as a ribitol/xylitol solution were applied at 300 mM total concentration to plants including white clover and pigweed. […] Other common sugars like glucose and fructose had no effect. […] Due to the desire for a broad spectrum herbicide that affected both seed germination and plant growth the most, and to keep the most expensive component, ribitol, to a low effective level, we concluded that the 150 mM ribitol/150 mM xylitol formulation (300 mM combined concentration) was the optimum for field tests.

dandelion plants = experiment: Container studies, spraying of dandelion plants (FIG. 4); format: in vivo; conditions: 300 mm, ribitol+xylitol each at 150 mM, sprayed twice weekly for 2 weeks
Protocol: FIG. 4 includes images showing the effect of application of […] fructose, glucose, sorbitol, ribitol, xylitol, or ribitol+xylitol (each at 150 mM) twice weekly for 2 weeks on dandelion plants.
as §3

[5] = test system: wild type Arabidopsis seeds; experiment: Seed germination with ribitol and SDH specific inhibitor (FIG. 8), Arabidopsis; format: in vivo; conditions: 150 mM ribitol, 0.5 mM CP-470711, six days
Protocol: (§4) FIG. 8 includes images showing the effect of blocking SDH activity with (A) water (B) 150 mM ribitol (C) the SDH-specific inhibitor CP-470711(Pfizer) and (D) ribitol+CP-470711 on sensitivity of seed germination of Wild Type Arabidopsis, tomato, and rice for 6 days.
(§5) The effect of blocking SDH activity with an SDH specific inhibitor was explored with application to wild type Arabidopsis, tomato and rice seeds for six days. […] Each compound alone at the same concentration had no effect.

tomato seeds = experiment: Seed germination with ribitol and SDH specific inhibitor (FIG. 8), tomato; format: in vivo; conditions: 150 mM ribitol, 0.5 mM CP-470711, six days
Protocol: as §4, §5

rice seeds = experiment: Seed germination with ribitol and SDH specific inhibitor (FIG. 8), rice; format: in vivo; conditions: 150 mM ribitol, 0.5 mM CP-470711, six days
Protocol: as §4, §5

[6] = test system: sdh-knockout mutant plants and Wild Type plants; conditions: 50 mM ribitol, cited from earlier work
seed germination = conditions: when it cannot be metabolized properly; cited from earlier work
[7] = target: T1, sorbitol dehydrogenase (SDH) (Ovis aries, UniProt P07846); conditions: cited from earlier work
T1 sequence (P07846 1-354): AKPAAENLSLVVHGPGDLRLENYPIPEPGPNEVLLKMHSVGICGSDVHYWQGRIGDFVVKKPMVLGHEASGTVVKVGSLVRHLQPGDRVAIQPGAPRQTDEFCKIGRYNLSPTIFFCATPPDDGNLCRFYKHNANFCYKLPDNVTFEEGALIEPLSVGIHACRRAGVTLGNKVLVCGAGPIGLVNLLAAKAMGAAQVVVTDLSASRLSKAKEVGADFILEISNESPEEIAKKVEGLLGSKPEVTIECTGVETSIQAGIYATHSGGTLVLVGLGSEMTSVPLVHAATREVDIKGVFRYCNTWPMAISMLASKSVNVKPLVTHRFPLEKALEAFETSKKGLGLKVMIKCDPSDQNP

With `OC[C@@H](O)[C@@H](O)[C@@H](O)CO` [ribitol] the “ribitol concentration at which toxicity effect on seed germination occurred” value [1] was ≥ 300 mM, the “inhibition of seed germination” value [2] was “only significantly inhibited by the ribitol/xylitol solution” and the “concentration at which grass seed was significantly inhibited” value (seed of turfgrass) was 300 mM. The “concentration at which clover seed was in developmental arrest” value [3] was 400 mM, the “effect of application on growing plants” value [4] was “caused injury and death” and the “rank order of the effect” value [4] was “sorbitol<xylitol≤ribitol”. For the same compound, the “effect on dandelion plants” value (dandelion plants) was “death of plants”, the “effect on seed germination” value [5] was “no effect” and the “effect on seed germination” value (tomato seeds) was “no effect”. For the same compound, the “effect on seed germination” value (rice seeds) was “no effect”, the “effect of application on Wild Type plants” value ([6]; Wild Type plants) was “no effect” and the “effect of application on sdh-knockout mutant plants” value ([6]; well-watered sdh-knockout mutant plants) was “quick injury and eventual death”. The “effect on seed germination” value (seed germination) was “inhibited seed germination”.
With `OC[C@@H](O)[C@H](O)[C@@H](O)CO` [xylitol] the “inhibition of seed germination” value [2] was “only significantly inhibited by the ribitol/xylitol solution”, the “effect of application on growing plants” value [4] was “caused injury and death” and the “severity of effect across species” value [4] was “caused damage”. For the same compound, the “rank order of the effect” value [4] was “sorbitol<xylitol≤ribitol” and the “effect on dandelion plants” value (dandelion plants) was “death of plants”.
In the case of `O[C@H]1[C@H](O)[C@@H](O)[C@H](O)[C@@H](O)[C@H]1O` [inositol, reference compound], the “inhibition of seed germination” value [2] is reported as “only significantly inhibited by the ribitol/xylitol solution”.
In the case of `O=C(CO)[C@@H](O)[C@H](O)[C@H](O)CO` [fructose, reference compound], the “inhibition of seed germination” value [2] is reported as “only significantly inhibited by the ribitol/xylitol solution” and the “effect of application on growing plants” value [4] is reported as “no effect”.
In the case of `OC[C@@H](O)[C@@H](O)[C@H](O)[C@@H](O)CO` [sorbitol], the “inhibition of seed germination” value [2] is reported as “only significantly inhibited by the ribitol/xylitol solution”, the “effect of application on growing plants” value [4] is reported as “caused injury and death” and the “severity of effect across species” value [4] is reported as “caused damage”. The “rank order of the effect” value [4] was “sorbitol<xylitol≤ribitol”.
For `SCc1ccccc1` [1-thio-1-phenylmethane], the SDH inhibition [7] is listed as “effective SDH inhibitors”.
In the case of `SCCc1ccccc1` [1-thio-2-phenylethane], the SDH inhibition [7] is given as “effective SDH inhibitors”.
